Laboratory results from ChEMBL document CHEMBL4507262, “Data for DCP probe A-1596586” (2021).

How the values were obtained:
[1] = biological target: Adenosine receptor A2a (Homo sapiens) (UniProt P29274); assay: A2A (h) Eurofins-Cerep binding assay; set-up: ligand concentration 6 nM; conditions: filed as agonist, Compound concentration 10.0 uM
[2] = biological target: Tumor necrosis factor (Homo sapiens) (UniProt P01375); assay: TNF-alpha (h) Eurofins-Cerep binding assay; set-up: ligand concentration 0.1 nM; conditions: filed as agonist, Compound concentration 10.0 uM
[3] = biological target: Vasopressin V1a receptor (Homo sapiens) (UniProt P37288); assay: V1 a (h) Eurofins-Cerep binding assay; set-up: ligand concentration 0.3 nM; conditions: filed as agonist, Compound concentration 10.0 uM
[4] = biological target: AP2-associated protein kinase 1 (Homo sapiens) (UniProt Q2M2I8); conditions: Compound concentration 1000.0 nM
[5] = biological target: Activin receptor type-1 (Homo sapiens) (UniProt Q04771); conditions: Compound concentration 1000.0 nM
[6] = biological target: RAC-gamma serine/threonine-protein kinase (Homo sapiens) (UniProt Q9Y243); conditions: Compound concentration 1000.0 nM
[7] = biological target: Calcium/calmodulin-dependent protein kinase kinase 1 (Homo sapiens) (UniProt Q8N5S9); conditions: Compound concentration 1000.0 nM
[8] = biological target: Cyclin-dependent kinase-like 2 (Homo sapiens) (UniProt Q92772); conditions: Compound concentration 1000.0 nM
[9] = biological target: Dual specificity protein kinase CLK3 (Homo sapiens) (UniProt P49761); conditions: Compound concentration 1000.0 nM
[10] = biological target: Casein kinase I isoform alpha-like (Homo sapiens) (UniProt Q8N752); conditions: Compound concentration 1000.0 nM
[11] = biological target: Myotonin-protein kinase (Homo sapiens) (UniProt Q09013); conditions: Compound concentration 1000.0 nM
[12] = system: Epidermal growth factor receptor (Homo sapiens), P00533 [L858R,T790M]; conditions: Compound concentration 1000.0 nM
[13] = biological target: Mitogen-activated protein kinase 7 (Homo sapiens) (UniProt Q13164); conditions: Compound concentration 1000.0 nM
[14] = biological target: Cyclin-G-associated kinase (Homo sapiens) (UniProt O14976); conditions: Compound concentration 1000.0 nM
[15] = system: Mast/stem cell growth factor receptor Kit (Homo sapiens), P10721 [V559D,T670I]; conditions: Compound concentration 1000.0 nM
[16] = biological target: Mitogen-activated protein kinase kinase kinase 15 (Homo sapiens) (UniProt Q6ZN16); conditions: Compound concentration 1000.0 nM
[17] = biological target: Serine/threonine-protein kinase MARK1 (Homo sapiens) (UniProt Q9P0L2); conditions: Compound concentration 1000.0 nM
[18] = biological target: Serine/threonine-protein kinase Nek7 (Homo sapiens) (UniProt Q8TDX7); conditions: Compound concentration 1000.0 nM
[19] = biological target: Mitogen-activated protein kinase 14 (Homo sapiens) (UniProt Q16539); conditions: Compound concentration 1000.0 nM
[20] = biological target: Platelet-derived growth factor receptor alpha (Homo sapiens) (UniProt P16234); conditions: Compound concentration 1000.0 nM
[21] = system: Phosphatidylinositol 4,5-bisphosphate 3-kinase catalytic subunit alpha isoform (Homo sapiens), P42336 [I800L]; conditions: Compound concentration 1000.0 nM
[22] = biological target: Serine/threonine-protein kinase N2 (Homo sapiens) (UniProt Q16513); conditions: Compound concentration 1000.0 nM
[23] = biological target: Serine/threonine-protein kinase PLK1 (Homo sapiens) (UniProt P53350); conditions: Compound concentration 1000.0 nM
[24] = biological target: Serine/threonine-protein kinase D3 (Homo sapiens) (UniProt O94806); conditions: Compound concentration 1000.0 nM
[25] = biological target: Tyrosine-protein kinase Tec (Homo sapiens) (UniProt P42680); conditions: Compound concentration 1000.0 nM
[26] = biological target: NT-3 growth factor receptor (Homo sapiens) (UniProt Q16288); conditions: Compound concentration 1000.0 nM
[27] = biological target: Serine/threonine-protein kinase ULK2 (Homo sapiens) (UniProt Q8IYT8); conditions: Compound concentration 1000.0 nM
[28] = biological target: Wee1-like protein kinase 2 (Homo sapiens) (UniProt P0C1S8); conditions: Compound concentration 1000.0 nM
[29] = biological target: Serine/threonine-protein kinase 25 (Homo sapiens) (UniProt O00506); conditions: Compound concentration 1000.0 nM
[30] = biological target: T1, Alpha-1B adrenergic receptor (Homo sapiens) (UniProt P35368); conditions: Compound concentration 10.0 uM
T1 sequence (whole entry): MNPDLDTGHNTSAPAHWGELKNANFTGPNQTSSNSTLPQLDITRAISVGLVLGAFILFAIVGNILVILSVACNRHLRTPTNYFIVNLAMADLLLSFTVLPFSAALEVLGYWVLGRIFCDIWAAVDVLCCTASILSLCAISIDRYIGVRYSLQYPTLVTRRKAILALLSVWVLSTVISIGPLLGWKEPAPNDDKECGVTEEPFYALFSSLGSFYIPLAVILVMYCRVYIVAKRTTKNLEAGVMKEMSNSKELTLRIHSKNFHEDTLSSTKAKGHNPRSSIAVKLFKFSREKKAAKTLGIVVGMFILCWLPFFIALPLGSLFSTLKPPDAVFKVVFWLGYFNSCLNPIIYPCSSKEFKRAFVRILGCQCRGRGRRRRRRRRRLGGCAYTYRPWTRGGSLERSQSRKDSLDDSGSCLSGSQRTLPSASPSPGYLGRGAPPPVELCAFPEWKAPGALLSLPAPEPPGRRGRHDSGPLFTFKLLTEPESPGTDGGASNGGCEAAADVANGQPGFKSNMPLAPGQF

[31] = biological target: T2, Muscarinic acetylcholine receptor M4 (Homo sapiens) (UniProt P08173); conditions: Compound concentration 10.0 uM
T2 sequence (whole entry): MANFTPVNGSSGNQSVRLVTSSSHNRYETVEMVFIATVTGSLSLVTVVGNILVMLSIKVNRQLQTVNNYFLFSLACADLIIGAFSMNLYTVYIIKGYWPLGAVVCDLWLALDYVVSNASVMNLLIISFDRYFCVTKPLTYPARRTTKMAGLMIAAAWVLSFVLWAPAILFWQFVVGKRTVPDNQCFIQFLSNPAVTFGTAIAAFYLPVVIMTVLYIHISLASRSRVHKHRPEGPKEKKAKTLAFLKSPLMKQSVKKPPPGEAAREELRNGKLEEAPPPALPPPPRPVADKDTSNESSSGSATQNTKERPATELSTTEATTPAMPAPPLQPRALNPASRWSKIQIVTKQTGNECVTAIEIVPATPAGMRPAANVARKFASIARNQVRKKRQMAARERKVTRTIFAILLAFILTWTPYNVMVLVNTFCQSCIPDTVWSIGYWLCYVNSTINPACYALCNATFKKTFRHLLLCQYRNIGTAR

[32] = biological target: Sigma non-opioid intracellular receptor 1 (Homo sapiens, UniProt Q99720); conditions: Compound concentration 10.0 uM
Chain of Sigma non-opioid intracellular receptor 1 (Q99720 whole entry): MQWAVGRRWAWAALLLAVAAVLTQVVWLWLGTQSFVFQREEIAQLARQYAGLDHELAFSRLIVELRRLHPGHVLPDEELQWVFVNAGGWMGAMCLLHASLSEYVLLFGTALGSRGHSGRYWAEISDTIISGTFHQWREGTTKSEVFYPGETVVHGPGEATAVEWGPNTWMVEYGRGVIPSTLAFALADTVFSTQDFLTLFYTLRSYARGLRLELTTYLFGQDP

Chain of Serine/threonine-protein kinase Nek7 (Homo sapiens) (Q8TDX7 whole entry, looked up): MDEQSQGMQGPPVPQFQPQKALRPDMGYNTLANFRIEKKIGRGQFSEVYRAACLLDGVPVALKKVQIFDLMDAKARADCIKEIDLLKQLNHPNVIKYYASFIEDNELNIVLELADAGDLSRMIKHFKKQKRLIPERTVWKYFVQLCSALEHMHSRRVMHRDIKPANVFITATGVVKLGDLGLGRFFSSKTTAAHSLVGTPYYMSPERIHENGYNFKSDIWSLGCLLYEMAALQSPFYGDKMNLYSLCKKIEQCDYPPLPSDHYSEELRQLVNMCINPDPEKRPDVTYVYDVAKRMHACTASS
Chain of Phosphatidylinositol 4,5-bisphosphate 3-kinase catalytic subunit alpha isoform (Homo sapiens), P42336 [I800L] (P42336 whole entry I800L, canonical isoform): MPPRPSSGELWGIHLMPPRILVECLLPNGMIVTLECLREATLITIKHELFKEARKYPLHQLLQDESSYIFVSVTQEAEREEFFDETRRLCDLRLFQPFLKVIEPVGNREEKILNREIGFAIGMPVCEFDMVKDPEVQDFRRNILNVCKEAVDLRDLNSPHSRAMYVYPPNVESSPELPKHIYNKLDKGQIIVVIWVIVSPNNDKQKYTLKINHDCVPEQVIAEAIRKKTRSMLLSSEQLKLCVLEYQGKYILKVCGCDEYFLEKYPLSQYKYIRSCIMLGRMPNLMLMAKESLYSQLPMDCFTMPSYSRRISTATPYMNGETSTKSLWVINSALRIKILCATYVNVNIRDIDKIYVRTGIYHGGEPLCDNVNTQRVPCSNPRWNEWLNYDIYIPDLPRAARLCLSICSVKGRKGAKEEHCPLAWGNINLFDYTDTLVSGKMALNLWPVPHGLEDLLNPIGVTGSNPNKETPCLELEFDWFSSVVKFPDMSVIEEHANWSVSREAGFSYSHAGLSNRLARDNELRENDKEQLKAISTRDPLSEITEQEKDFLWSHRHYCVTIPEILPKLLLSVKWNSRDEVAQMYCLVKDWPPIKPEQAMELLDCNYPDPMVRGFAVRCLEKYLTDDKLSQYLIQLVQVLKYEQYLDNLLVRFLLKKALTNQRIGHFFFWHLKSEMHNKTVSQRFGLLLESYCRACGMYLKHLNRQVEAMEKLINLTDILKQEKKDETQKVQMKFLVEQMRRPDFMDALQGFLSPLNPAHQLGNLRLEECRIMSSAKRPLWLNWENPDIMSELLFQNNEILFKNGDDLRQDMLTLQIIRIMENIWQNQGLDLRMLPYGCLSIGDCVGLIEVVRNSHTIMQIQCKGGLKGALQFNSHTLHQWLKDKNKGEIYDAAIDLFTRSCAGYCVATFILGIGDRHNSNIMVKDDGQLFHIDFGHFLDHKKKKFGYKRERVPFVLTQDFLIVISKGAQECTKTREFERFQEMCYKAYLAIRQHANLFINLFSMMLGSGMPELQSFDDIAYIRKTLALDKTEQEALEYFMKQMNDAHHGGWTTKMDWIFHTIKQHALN
Chain of Wee1-like protein kinase 2 (Homo sapiens) (P0C1S8 whole entry, looked up): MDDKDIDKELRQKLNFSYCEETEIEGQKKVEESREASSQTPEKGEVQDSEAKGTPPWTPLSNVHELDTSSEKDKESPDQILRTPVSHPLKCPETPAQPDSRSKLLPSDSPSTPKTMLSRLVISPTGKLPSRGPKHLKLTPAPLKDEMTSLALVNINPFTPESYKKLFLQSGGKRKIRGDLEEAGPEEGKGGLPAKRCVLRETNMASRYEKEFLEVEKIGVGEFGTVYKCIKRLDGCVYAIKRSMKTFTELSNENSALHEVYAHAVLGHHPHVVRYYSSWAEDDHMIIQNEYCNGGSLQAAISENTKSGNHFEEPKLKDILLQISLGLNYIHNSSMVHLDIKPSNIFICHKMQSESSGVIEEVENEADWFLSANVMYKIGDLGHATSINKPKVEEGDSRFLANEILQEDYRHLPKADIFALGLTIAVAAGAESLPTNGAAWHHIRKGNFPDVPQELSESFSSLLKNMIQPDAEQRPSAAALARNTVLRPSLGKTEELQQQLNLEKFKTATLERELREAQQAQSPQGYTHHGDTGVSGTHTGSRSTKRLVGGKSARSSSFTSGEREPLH
Chain of Mitogen-activated protein kinase 14 (Homo sapiens) (Q16539 whole entry): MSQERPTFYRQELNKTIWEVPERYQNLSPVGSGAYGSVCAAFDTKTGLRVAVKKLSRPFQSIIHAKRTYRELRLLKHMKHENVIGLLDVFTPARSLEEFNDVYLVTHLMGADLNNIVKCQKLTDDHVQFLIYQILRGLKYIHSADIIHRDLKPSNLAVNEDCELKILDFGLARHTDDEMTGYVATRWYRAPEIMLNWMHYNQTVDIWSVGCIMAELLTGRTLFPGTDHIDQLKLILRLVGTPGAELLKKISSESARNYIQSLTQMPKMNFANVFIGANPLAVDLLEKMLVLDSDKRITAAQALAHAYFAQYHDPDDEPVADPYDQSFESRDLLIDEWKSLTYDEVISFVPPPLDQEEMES
Chain of Serine/threonine-protein kinase PLK1 (Homo sapiens) (P53350 whole entry): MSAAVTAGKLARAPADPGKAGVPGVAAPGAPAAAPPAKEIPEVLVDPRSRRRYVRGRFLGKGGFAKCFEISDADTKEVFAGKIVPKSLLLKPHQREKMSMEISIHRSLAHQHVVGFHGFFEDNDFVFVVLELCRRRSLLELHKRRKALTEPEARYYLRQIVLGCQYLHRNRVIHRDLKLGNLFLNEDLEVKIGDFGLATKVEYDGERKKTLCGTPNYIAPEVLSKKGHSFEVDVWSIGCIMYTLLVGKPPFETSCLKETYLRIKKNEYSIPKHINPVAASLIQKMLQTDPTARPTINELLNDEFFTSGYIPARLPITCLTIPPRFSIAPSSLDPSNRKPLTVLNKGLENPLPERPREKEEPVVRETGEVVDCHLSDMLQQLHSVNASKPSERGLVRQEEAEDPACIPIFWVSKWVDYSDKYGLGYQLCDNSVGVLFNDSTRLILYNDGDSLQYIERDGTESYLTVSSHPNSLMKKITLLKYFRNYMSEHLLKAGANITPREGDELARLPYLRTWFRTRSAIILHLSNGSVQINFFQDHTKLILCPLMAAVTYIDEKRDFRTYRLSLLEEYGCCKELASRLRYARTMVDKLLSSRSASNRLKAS
Chain of Casein kinase I isoform alpha-like (Homo sapiens) (Q8N752 whole entry, canonical isoform): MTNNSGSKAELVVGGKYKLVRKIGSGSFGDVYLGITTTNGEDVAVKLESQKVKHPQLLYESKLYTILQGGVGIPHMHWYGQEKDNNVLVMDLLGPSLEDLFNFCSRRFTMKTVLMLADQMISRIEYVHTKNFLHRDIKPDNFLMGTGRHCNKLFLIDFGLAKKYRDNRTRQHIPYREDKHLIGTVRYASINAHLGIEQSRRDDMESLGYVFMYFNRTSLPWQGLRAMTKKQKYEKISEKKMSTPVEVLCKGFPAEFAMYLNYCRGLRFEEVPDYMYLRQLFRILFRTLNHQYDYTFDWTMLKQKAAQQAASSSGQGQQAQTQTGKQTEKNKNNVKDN
Chain of Tumor necrosis factor (Homo sapiens) (P01375 whole entry): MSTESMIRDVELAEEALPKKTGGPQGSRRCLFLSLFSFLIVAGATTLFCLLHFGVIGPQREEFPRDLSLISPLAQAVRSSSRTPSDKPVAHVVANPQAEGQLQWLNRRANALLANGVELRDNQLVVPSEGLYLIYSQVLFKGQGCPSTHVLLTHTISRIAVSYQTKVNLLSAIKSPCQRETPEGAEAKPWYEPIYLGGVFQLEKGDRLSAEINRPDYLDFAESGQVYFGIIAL
Chain of Tyrosine-protein kinase Tec (Homo sapiens) (P42680 whole entry): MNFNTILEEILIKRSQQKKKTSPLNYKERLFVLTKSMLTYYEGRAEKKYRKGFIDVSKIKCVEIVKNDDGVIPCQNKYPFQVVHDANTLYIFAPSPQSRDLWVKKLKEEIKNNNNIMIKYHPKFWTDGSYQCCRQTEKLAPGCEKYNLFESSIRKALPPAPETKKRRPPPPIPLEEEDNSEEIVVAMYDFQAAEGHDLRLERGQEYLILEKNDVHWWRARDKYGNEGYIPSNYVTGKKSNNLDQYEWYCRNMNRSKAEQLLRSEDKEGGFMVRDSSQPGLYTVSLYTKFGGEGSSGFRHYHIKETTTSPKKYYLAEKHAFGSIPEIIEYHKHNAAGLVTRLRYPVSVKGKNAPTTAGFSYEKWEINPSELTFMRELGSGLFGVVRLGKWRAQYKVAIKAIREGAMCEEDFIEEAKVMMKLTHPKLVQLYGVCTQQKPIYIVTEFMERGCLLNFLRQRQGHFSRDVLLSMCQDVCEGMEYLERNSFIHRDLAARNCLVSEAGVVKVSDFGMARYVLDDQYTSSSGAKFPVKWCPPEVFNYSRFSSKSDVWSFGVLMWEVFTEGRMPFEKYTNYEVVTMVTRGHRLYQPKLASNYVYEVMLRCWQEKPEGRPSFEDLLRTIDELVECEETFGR
Chain of Myotonin-protein kinase (Homo sapiens) (Q09013 whole entry): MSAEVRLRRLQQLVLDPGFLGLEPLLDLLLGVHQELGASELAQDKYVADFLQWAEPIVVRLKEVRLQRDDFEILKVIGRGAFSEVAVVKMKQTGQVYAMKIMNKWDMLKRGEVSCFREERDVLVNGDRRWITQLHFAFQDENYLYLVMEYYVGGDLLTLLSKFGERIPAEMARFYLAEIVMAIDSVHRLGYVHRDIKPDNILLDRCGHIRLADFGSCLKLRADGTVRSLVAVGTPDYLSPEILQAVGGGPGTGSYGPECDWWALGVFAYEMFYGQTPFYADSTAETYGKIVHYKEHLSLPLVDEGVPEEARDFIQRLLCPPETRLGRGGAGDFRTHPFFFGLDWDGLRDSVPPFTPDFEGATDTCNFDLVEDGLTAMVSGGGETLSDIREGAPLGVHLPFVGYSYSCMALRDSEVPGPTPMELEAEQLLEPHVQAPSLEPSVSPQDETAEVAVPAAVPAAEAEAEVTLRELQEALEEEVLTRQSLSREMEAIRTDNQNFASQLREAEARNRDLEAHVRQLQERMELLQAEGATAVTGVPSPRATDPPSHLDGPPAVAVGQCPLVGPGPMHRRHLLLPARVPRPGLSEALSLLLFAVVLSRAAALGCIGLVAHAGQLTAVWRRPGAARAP

SMILES | % Inhibition of Control Specific Binding (Mean n=2) [1] | % Inhibition of Control Specific Binding (Mean n=2) [2] | % Inhibition of Control Specific Binding (Mean n=2) [3] | residual activity [4] | residual activity [5] | residual activity [6] | residual activity [7] | residual activity [8] | residual activity [9] | residual activity [10] | residual activity [11] | residual activity [12] | residual activity [13] | residual activity [14] | residual activity [15] | residual activity [16] | residual activity [17] | residual activity [18] | residual activity [19] | residual activity [20] | other results
COc1ccc2c(c1)O[C@@H](c1ccc(OC)c(OC)c1)C[C@H]2NC(=O)C1(c2ccc3c(c2)OC(F)(F)O3)CC1 [A-1596586] | 11.2% | -9.2% | 4.7% | 91% | 100% | 100% | 89% | 100% | 100% | 100% | 93% | 100% | 100% | 100% | 99% | 88% | 100% | 100% | 99% | 78% | residual activity [21]: 79%; residual activity [22]: 100%; residual activity [23]: 70%; residual activity [24]: 97%; residual activity [25]: 89%; residual activity [26]: 83%; residual activity [27]: 77%; residual activity [28]: 100%; residual activity [29]: 100%; inhibition [30]: 49%; inhibition [31]: -2.72%; inhibition [32]: 82.8%
COc1ccc2c(c1)O[C@H](c1ccc(OC)c(OC)c1)C[C@@H]2NC(=O)C1(c2ccc3c(c2)OC(F)(F)O3)CC1 [A-1596584] | 7.8% | -3.3% | 5.9% | 100% | 98% | 100% | 100% | 100% | 100% | 100% | 94% | 96% | 100% | 100% | 100% | 100% | 79% | 100% | 90% | 87% | residual activity [21]: 97%; residual activity [22]: 100%; residual activity [23]: 83%; residual activity [24]: 100%; residual activity [25]: 100%; residual activity [26]: 92%; residual activity [27]: 100%; residual activity [28]: 100%; residual activity [29]: 100%; inhibition [30]: 5.97%; inhibition [31]: 0.59%; inhibition [32]: 53%
